Literature values as cited in patent US20200268735A1, “Combination Therapy of Lasmiditan and a CGRP Antagonist for Use in the Treatment of Migraine” (Eli Lilly and Company, priority 2017, published 2020).
Where two headings read alike, the source gives them in different places.

Experiments:
[1] = SPARTAN, lasmiditan 200 mg, p<0.001
[2] = SAMURAI, lasmiditan 200 mg, p<0.001
[3] = for reduction in mean monthly migraine headache days: placebo 2.3 days

CN1CCC(C(=O)c2cccc(NC(=O)c3c(F)cc(F)cc3F)n2)CC1 [lasmiditan, 2,4,6-trifluoro-N-[6-(1-methyl-piperidin-4-ylcarbonyl)-pyridin-2-yl]-benzamide]
proportion of patients headache pain-free at 2 hours post-first dose ([1]; placebo 21.3%): 38.8% | proportion of patients most bothersome symptom (MBS)-free at 2 hours post-first dose ([1]; placebo 33.5%): 48.7% | severity of most treatment-emergent adverse events (after the first dose): mild-to-moderate | headache pain-free and MBS-free endpoints, other dose groups compared to placebo (lasmiditan 100 mg, 50 mg, both endpoints): significance was also noted | most frequently reported TEAEs after the first dose (≥2% and greater than placebo): dizziness, paresthesia, somnolence, fatigue, nausea, and lethargy | proportion of patients headache pain-free at 2 hours post-first dose ([2]; placebo 15.3%): 32.2% | proportion of patients most bothersome symptom (MBS)-free at 2 hours post-first dose ([2]; placebo 29.5%): 40.7%

B1: galcanezumab: monoclonal antibody targeting calcitonin gene-related peptide (CGRP) (antibody, chains of the INN, looked up, V domains shown)
VH: QVQLVQSGAEVKKPGSSVKVSCKASGYTFGNYWMQWVRQAPGQGLEWMGAIYEGTGKTVYIQKFADRVTITADKSTSTAYMELSSLRSEDTAVYYCARLSDYVSGFGYWGQGTTVTVSS
VL: DIQMTQSPSSLSASVGDRVTITCRASKDISKYLNWYQQKPGKAPKLLIYYTSGYHSGVPSRFSGSGSGTDFTLTISSLQPEDFATYYCQQGDALPPTFGGGTKVEIK
adverse events significantly more frequent versus placebo ([3]; 240 mg group): significantly more injection site erythema | all key secondary endpoints versus placebo ([3]; both doses (120 and 240 mg)): superior to placebo | adverse events significantly more frequent versus placebo ([3]; both galcanezumab doses): significantly more injection site reactions and injection site pruritus | reduction in mean monthly migraine headache days ([3]; galcanezumab 120 mg once monthly): 4.3 days | reduction in mean monthly migraine headache days ([3]; galcanezumab 240 mg once monthly): 4.2 days | most common treatment-emergent adverse event ([3]; reported at similar rates in all treatment groups): Injection site pain
